# Assay results published in patent publication EP1216701A1, “Process to increase the concentration of meiosis-activating sterols (MAS) in the cholesterol synthesis and the use of potent inhibitors in the process” (Schering Aktiengesellschaft, priority 2000, dated 2002).
# Legend:
# HepG2 cells [1] = assay: Isotopomer spectral analysis (ISA) of flux of 13C-acetate to lathosterol and cholesterol; type: cell-based, Human; conditions: 10 µM, 12 h, 1 mM 1-13C-acetate
# Procedure: (§1) Human hepatoma HepG2 cells were cultured to confluency in 60-mm dishes in phenol-red-free Dulbecco's modified Eagle's medium (DMEM) containing Pen-Strep (100 µg/ml), glucose (10 mM), sodium bicarbonate (45 mM) and glutamine (4 mM) supplemented with 10% fetal calf serum as described previously (24). At the beginning of the experiment the medium was changed to serum-free DMEM supplemented with 10% lipid-free "controlled process serum replacement" (CPSR-1). Compounds were added from ethanolic stock solutions to produce final ethanol concentrations of 0.1-0.3% v/v. Controls received the same amount of ethanol. Aminotriazole was added in an aqueous solution. Slices of rat testis (25 µm; 25-50 mg wet weight) were incubated under the same conditions in a shaking water bath (37°C). For isotopomer spectral analysis (ISA) of lathosterol, 1-^13C-acetate was added in an aqueous solution to a final concentration of 1 mM.
# (§2) Analyses were performed on a Hewlett-Packard GC/MS system (5890 series II GC interfaced to a 5971 mass selective detector) equipped with a DB-XLB column (30 m x 0.25 mm i.d. x 0.25 µm film; J&W). Gas-chromatography was done in the splitless mode with temperature programming as follows: 150°C for 1 min, followed by 20°C/min up to 260°C and 10°C/min up to 280°C (hold for 15 min). Mass spectral data were collected either in the full-scan mode (m/z 50-550) or by selective ion monitoring (SIM). For SIM analyses the electron multiplier voltage was raised by 300 V after the elution of lathosterol to increase the sensitivity of detection for lanosterol, dihydrolanosterol, methylsterols, dimethylsterols and plant sterols. The internal standard epicoprostanol was monitored at m/z 370. In unlabeled experiments, cholesterol precursors and plant sterols were monitored by the following ions: desmosterol (m/z 456; 441 and 351); Δ8-cholestenol (m/z 458); lathosterol (m/z 458); monounsaturated methylsterols (m/z 472); diunsaturated methylsterols (m/z 470); monounsaturated dimethylsterols (m/z 486); diunsaturated dimethylsterols (m/z 484); triunsaturated dimethylsterols (m/z 482); lanosterol (m/z 498 and 393) and dihydrolanosterol (m/z 500 and 395). Peak integration was performed manually, and sterols were quantified from SIM analyses against the internal standard. Unless stated otherwise, MAS amounts are given as a percentage of the control. When 1-^13C-acetate was used in the culture medium for ISA, up to 10 ions (M+0- M+10) were monitored for the TMS derivatives of lathosterol (m/z 458-468), T-MAS (m/z 484-494) and FF-MAS (m/z 482-492).
# ISA was carried out as described previously (25) by incubating cells with 1-13C-acetate. The isotopomer distribution in sterols synthesized from 1-^13C-acetate provided the fractional synthesis rate g(t) of the product and the enrichment D of the labeled precursor pool. These parameters were calculated by nonlinear regression analysis as described previously (25,26). Because here we used the molecular ions containing the TMS group for the ISA calculations, the ISA program was modified to correct for the additional C, H and Si atoms from the derivatization reagent. Statistical differences were assessed by Student's t-test and considered significant for P<0.05.
# HepG2 cells [2] = assay: Accumulation of cholesterol precursors / C29-sterols (MAS) in HepG2 cells, GC/MS (SIM); type: cell-based, Human; conditions: HepG2 cells; for Increases in FF-MAS / Increases in T-MAS: 1 µM, refers to Table 1; for Dienol (m/z 486) / Enol T-MAS (m/z 484) / Trienol FF-MAS (m/z 482): ± SD; for suppression of the Δ24 reduction step (accumulation of desmosterol): absence of miconazole, 10 µM potent inhibitors or 1 µM tamoxifen for 12 h
# Procedure: as §1
# (§3) Cells were washed three times with ice cold PBS (pH 7.4) (once with 2 mg/ml BSA and twice with PBS alone). Epicoprostanol (1 µg in 50 µl of hexane) was added as internal standard to each sample. Sterols were extracted in hexane/isopropanol (3:2 v/v; two times with 4 ml). After drying under nitrogen and alkaline hydrolysis (1 N NaOH in 80% ethanol, 1.5 h at 70°C), the sterols were extracted with cyclohexane (two times with 3 ml). After drying under nitrogen, sterols were converted to their trimethylsilyl (TMS) derivatives by adding 100 µl bis(trimethylsilyl)trifluoracetamide (Pierce)/n-decane (1:1; v/v) and heating for 1 h at 70°C in a conical glass tube. This solution (1-2 µl) was used for gas-chromatography/mass-spectrometry (GC/MS). Rat testes (0.05-0.15 g) were homogenized manually, and lipids were extracted in hexane/isopropanol (3:2 v/v; two times with 4 ml). The extracts were deproteinized with acetone (3 ml) and processed as described above. The observed sterol levels in testis were normalized to correspond to 0.1 g of tissue (wet weight).
# Gas-chromatography was done in the splitless mode with temperature programming as follows: 150°C for 1 min, followed by 20°C/min up to 260°C and 10°C/min up to 280°C (hold for 15 min). Mass spectral data were collected either in the full-scan mode (m/z 50-550) or by selective ion monitoring (SIM). For SIM analyses the electron multiplier voltage was raised by 300 V after the elution of lathosterol to increase the sensitivity of detection for lanosterol, dihydrolanosterol, methylsterols, dimethylsterols and plant sterols. The internal standard epicoprostanol was monitored at m/z 370. […] Peak integration was performed manually, and sterols were quantified from SIM analyses against the internal standard. Unless stated otherwise, MAS amounts are given as a percentage of the control.
# Δ24-reductase = target: T1, Δ24-reductase (Homo sapiens, UniProt Q15392); assay: Δ24-reductase assay (conversion of lanosterol to dihydrolanosterol in the presence of miconazole); type: cell-based; conditions: HepG2 cells; conversion of lanosterol to dihydrolanosterol with added miconazole
# T1 construct: endogenous in cells; host or cells: HepG2
# T1 sequence (Q15392 23-516): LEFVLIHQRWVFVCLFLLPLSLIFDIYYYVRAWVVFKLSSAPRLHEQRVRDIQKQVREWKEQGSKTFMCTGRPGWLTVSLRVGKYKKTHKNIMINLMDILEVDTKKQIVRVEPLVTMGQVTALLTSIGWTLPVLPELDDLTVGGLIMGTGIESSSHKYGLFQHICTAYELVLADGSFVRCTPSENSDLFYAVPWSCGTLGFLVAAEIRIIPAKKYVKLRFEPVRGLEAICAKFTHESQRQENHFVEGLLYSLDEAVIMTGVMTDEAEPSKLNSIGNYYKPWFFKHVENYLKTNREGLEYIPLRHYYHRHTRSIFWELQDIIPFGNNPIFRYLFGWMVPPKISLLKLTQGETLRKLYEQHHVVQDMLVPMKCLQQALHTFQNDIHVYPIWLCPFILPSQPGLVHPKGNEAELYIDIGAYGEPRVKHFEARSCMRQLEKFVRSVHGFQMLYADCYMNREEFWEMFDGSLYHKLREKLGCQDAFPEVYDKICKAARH
# Procedure: HepG2 cells were incubated for 12 h with 10 µM simvastatin (a kind gift from M. Stapff (MSD, Germany)) to deplete cholesterol precursors. Thereafter, the medium was changed to one containing 10 µM simvastatin, 10 µM miconazole (an inhibitor of 14α-demethylation) and 6 µg/dish lanosterol. After 12 h incubation, neutral sterols were extracted as described above, and the samples were monitored for lanosterol (m/z 498 (M^+) and m/z 393 (M-TMSOH-CH3)) and dihydrolanosterol (m/z 500 (M^+) and m/z 395 (M-TMSOH-CH3)) by GC/MS. Dihydrolanosterol was quantified by comparing the ratio of SIM abundances at m/z 395 and 370 (epicoprostanol) against a standard curve constructed from SIM results on mixtures of authentic dihydrolanosterol and epicoprostanol. Desmosterol was quantified analogously by SIM.
# rat testis = assay: Levels of C29-sterols in rat testis slices, GC/MS (SIM); type: cell-based, Sprague-Dawley rats; conditions: 9 h, n=3, ± SD
# Procedure: Unless specified otherwise, potent inhibitors, drugs, chemicals, and cell culture supplies were purchased from Sigma. T-MAS and FF-MAS were synthesized as reported recently (5) and used as reference compounds. 1-^13C-acetate was obtained from Cambridge Isotope Laboratories. Rat testes were obtained from Sprague-Dawley rats (weight <50g).
# as §1, §3, §2
# [3] = Conc. 1 µM (combinations 1 + 1 µM), 24 h, n=3
# [4] = Conc. 10 µM (combinations 10 + 10 µM), 12 h, n=2
# [5] = Conc. 10 µM (combination 10 + 10 µM)
# [6] = 12-h incubation with 10 µM, n=3 incubations
SMILES,lowering of the total amount of lathosterol (HepG2 cells [1]),reduction of de novo lathosterol synthesis (HepG2 cells [1]),Increases in FF-MAS (HepG2 cells [2]),Increases in T-MAS (HepG2 cells [2]),Dienol (m/z 486) (HepG2 cells [2]; [3]),Enol T-MAS (m/z 484) (HepG2 cells [2]; [3]),Dienol (m/z 486) (HepG2 cells [2]; [4]),Enol T-MAS (m/z 484) (HepG2 cells [2]; [4]),Trienol FF-MAS (m/z 482) (HepG2 cells [2]; [4]),suppression of the Δ24 reduction step (accumulation of desmosterol) (HepG2 cells [2]),order of suppression of Δ24 reduction (Δ24-reductase),Dienol (m/z 486) (rat testis; [5]),Enol T-MAS (m/z 484) (rat testis; [5]),Trienol FF-MAS (m/z 482) (rat testis; [5]),Dienol (m/z 486) (rat testis; Conc. 20 µM),Enol T-MAS (m/z 484) (rat testis; Conc. 20 µM),Trienol FF-MAS (m/z 482) (rat testis; Conc. 20 µM),further results
"CC(=O)[C@@]1(O)CC[C@H]2[C@@H]3CCC4=CC(=O)CC[C@]4(C)[C@H]3CC[C@@]21C [17α-OH-Progesterone, 17α-Hydroxy-progesterone]",ca. 50%,more than 60%,4 fold,9 fold,246 ± 26 % of control,162 ± 15 % of control,2384 ± 236 % of control,2003 ± 201 % of control,406 ± 52 % of control,not,pregnenolone > progesterone > 17α-OH-pregnenolone >> 17α-OH-progesterone,199 ± 19 % of control,201 ± 26 % of control,171 ± 8 % of control,223 ± 25 % of control,225 ± 22 % of control,240 ± 40 % of control,Trienol FF-MAS (m/z 482) (HepG2 cells [2]; [3]): 120 ± 14 % of control
CC(=O)[C@H]1CC[C@H]2[C@@H]3CCC4=CC(=O)CC[C@]4(C)[C@H]3CC[C@]12C [Progesterone],ca. 50%,more than 60%,4 fold,9 fold,77 ± 9 % of control,192 ± 41 % of control,26 ± 3 % of control,1000 ± 106 % of control,3335 ± 397 % of control,strongly suppressed,pregnenolone > progesterone > 17α-OH-pregnenolone >> 17α-OH-progesterone,109 ± 1 % of control,107 ± 1 % of control,336 ± 12 % of control,103 ± 14 % of control,129 ± 10 % of control,487 ± 37 % of control,desmosterol as share of the cholesterol content of the cells (HepG2 cells [2]; 12-h incubation with 10 µM): 2.1%; cholesterol (HepG2 cells [2]; [6]): 269 ± 3 µg; desmosterol (HepG2 cells [2]; [6]): 5.7 ± 0.07 µg
